How the values were obtained:
Cdk2(S181C) (C177A) = biological target: T1, Cdk2(S181C) (C177A) (Homo sapiens, UniProt P24941, C177A/S181C); assay: Kinetic thiol consumption assay with Cdk2 mutant S181C; format: binding; design: key to Rate enhancement, Cdk2 S181C: rate constant with Cdk2 ÷ rate constant with model thiol (fold); settings: additional mutation C177A; for Rate constant with Cdk2 S181C: Protein: Cdk2, cysteine position S181C, in h^-1
T1 construct: poly-histidine; made in house; host or cells: E. coli
Method in brief: (§1)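 Read-out is fluorescence at 380/470 nm, taken after 1 h at room temperature and normalized to a DMSO/thiol-only control over time. Thiol (5 μM Cdk2 mutant or model thiol) was in degassed pH 8 phosphate buffer with 2% v/v TCEP beads. Acrylamide rate constants for Cdk2 were divided by those with model thiol.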

Cdk2[C177A, F80C, K278C] = biological target: T2, Cdk2[C177A, F80C, K278C] (Homo sapiens, UniProt P24941, C177A/F80C/K278C); assay: Kinetic thiol consumption assay with mutant Cdk2 as model thiol; format: binding; design: unit not given here; settings: 500 μM ligand, 5 μM thiol, phosphate buffer pH 8
T2 construct: poly-histidine; made in house; host or cells: E. coli
Method in brief: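 First-order rate constants were derived by exponential-decay fitting of DMSO/thiol-normalized fluorescence (380/470 nm) over time at room temperature. Thiol was 5 μM E. coli-expressed His-tagged Cdk2 mutant C177A/F80C/K278C in degassed pH 8 phosphate buffer containing 2% v/v TCEP beads.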

[1] = Kinetic thiol consumption assay with model thiol glutathione; format: physicochemical; design: Rate constant with glutathione (k(GSH)): unit not given here; settings: for Rate constant with glutathione (k(GSH)): 500 μM ligand, 5 μM thiol, phosphate buffer pH 8; for Rate constant with Glutathione: Protein: Glutathione, cysteine position NA, in h-1
Method in brief: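 GSH 5 μM, degassed phosphate buffer pH 8, TCEP beads 2% v/v; acrylamide added; RT, 1 h; fluorescence ex/em 380/470 nm; normalized to DMSO/thiol control; k from first-order exponential decay fit.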

Cdk2(T182C) (C177A) = biological target: T3, Cdk2(T182C) (C177A) (Homo sapiens, UniProt P24941, C177A/T182C); assay: Kinetic thiol consumption assay with Cdk2 mutant T182C; format: binding; design: key to Rate enhancement, Cdk2 T182C: rate constant with Cdk2 ÷ rate constant with model thiol (fold); settings: additional mutation C177A; for Rate constant with Cdk2 T182C: Protein: Cdk2, cysteine position T182C, in h^-1
T3 construct: poly-histidine; made in house; host or cells: E. coli
Method in brief: as §1

Cdk2(R122C) (C177A) = biological target: T4, Cdk2(R122C) (C177A) (Homo sapiens, UniProt P24941, C177A/R122C); assay: Kinetic thiol consumption assay with Cdk2 mutant R122C; format: binding; design: key to Rate enhancement, Cdk2 R122C: rate constant with Cdk2 ÷ rate constant with model thiol (fold); settings: additional mutation C177A; for Rate constant with Cdk2 R122C: Protein: Cdk2, cysteine position R122C, in h-1
T4 construct: poly-histidine; made in house; host or cells: E. coli
Method in brief: as §1

[2] = biological target: T5, human cyclin-dependent kinase 2 (Cdk2) (Homo sapiens, UniProt P24941); assay: Kinetic thiol consumption assay with wild type Cdk2 (C177); format: binding; design: key to Rate enhancement, Cdk2 WT: k(Cdk2) divided by k(model thiol); Rate constant with Cdk2 (k(Cdk2)): unit not given here; settings: for Rate constant with Cdk2 (k(Cdk2)): 500 μM ligand, 5 μM thiol, phosphate buffer pH 8; for Rate enhancement, Cdk2 WT: no additional mutations; for Rate constant with Cdk2 WT: Protein: Cdk2, cysteine position WT, in h^-1; for k(Cdk2)/k(Cdk2_mut) rate enhancement: model thiol Cdk2[C177A, F80C, K278C]; for k(Cdk2)/k(GSH) rate enhancement: model thiol glutathione
T5 construct: poly-histidine; made in house; host or cells: E. coli
Method in brief: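 Rate constants came from first-order exponential decay fits of normalized fluorescence against time, with thiol (5 μM) in degassed pH 8 phosphate buffer containing 2% v/v TCEP beads and reads after 1 h at room temperature.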

Cdk2(C177A, F80C) = biological target: T6, Cdk2(C177A, F80C) (Homo sapiens, UniProt P24941, C177A/F80C); assay: Kinetic thiol consumption assay with Cdk2 mutant F80C, incl. kobs versus concentration (Kd, k2); format: binding; design: key to Rate enhancement, Cdk2 F80C: Cdk2 rate constant divided by model-thiol rate constant; settings: additional mutation C177A; for Rate constant with Cdk2 F80C: Protein: Cdk2, cysteine position F80C, in h^-1
T6 construct: poly-histidine; made in house; host or cells: E. coli
Method in brief: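 His-tagged Cdk2(C177A/F80C) from E. coli or model thiol, 5 μM in degassed phosphate buffer pH 8 with TCEP beads, reacted with acrylamide ligands; fluorescence (ex/em 380/470 nm) normalized to DMSO control and fitted to first-order decay for kobs. Kd and k2 obtained from hyperbolic fit of kobs versus ligand concentration.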

Cdk2(N272C) (C177A) = biological target: T7, Cdk2(N272C) (C177A) (Homo sapiens, UniProt P24941, C177A/N272C); assay: Kinetic thiol consumption assay with Cdk2 mutant N272C; format: binding; design: key to Rate enhancement, Cdk2 N272: rate constant with Cdk2 ÷ rate constant with model thiol (fold); settings: for Rate enhancement, Cdk2 N272: Cdk2 N272, additional mutation C177A; for Rate constant with Cdk2 N272C: Protein: Cdk2, cysteine position N272C, additional mutation C177A, in h^-1
T7 construct: poly-histidine; made in house; host or cells: E. coli
Method in brief: as §1

Cdk2(S276C) (C177A) = biological target: T8, Cdk2(S276C) (C177A) (Homo sapiens, UniProt P24941, C177A/S276C); assay: Kinetic thiol consumption assay with Cdk2 mutant S276C; format: binding; design: key to Rate enhancement, Cdk2 S276C: rate constant with Cdk2 ÷ rate constant with model thiol (fold); settings: additional mutation C177A; for Rate constant with Cdk2 S276C: Protein: Cdk2, cysteine position S276C, in h^-1
T8 construct: poly-histidine; made in house; host or cells: E. coli
Method in brief: as §1

Cdk2(H71C) (C177A) = biological target: T9, Cdk2(H71C) (C177A) (Homo sapiens, UniProt P24941, C177A/H71C); assay: Kinetic thiol consumption assay with Cdk2 mutant H71C; format: binding; design: key to Rate enhancement, Cdk2 H71C: rate constant with Cdk2 ÷ rate constant with model thiol (fold); settings: additional mutation C177A; for Rate constant with Cdk2 H71C: Protein: Cdk2, cysteine position H71C, in h^-1
T9 construct: poly-histidine; made in house; host or cells: E. coli
Method in brief: as §1

Row | Structure (SMILES) | Rate enhancement, Cdk2 S181C (Cdk2(S181C) (C177A)) | Rate constant with Cdk2 S181C (Cdk2(S181C) (C177A)) | Rate constant with Cdk2[C177A, F80C, K278C] (k(Cdk2_mut)) (Cdk2[C177A, F80C, K278C]) | Rate enhancement, Cdk2 T182C (Cdk2(T182C) (C177A)) | Rate constant with Cdk2 T182C (Cdk2(T182C) (C177A)) | Rate enhancement, Cdk2 R122C (Cdk2(R122C) (C177A)) | Rate constant with Cdk2 R122C (Cdk2(R122C) (C177A)) | Rate constant with Cdk2 (k(Cdk2)) [2] | Rate enhancement, Cdk2 WT [2] | Rate constant with Cdk2 WT [2] | k(Cdk2)/k(Cdk2_mut) rate enhancement [2] | k(Cdk2)/k(GSH) rate enhancement [2] | Rate enhancement, Cdk2 F80C (Cdk2(C177A, F80C)) | Rate constant with Cdk2 F80C (Cdk2(C177A, F80C)) | Rate enhancement, Cdk2 N272 (Cdk2(N272C) (C177A)) | Rate constant with Cdk2 N272C (Cdk2(N272C) (C177A)) | Rate enhancement, Cdk2 S276C (Cdk2(S276C) (C177A)) | Rate constant with Cdk2 S276C (Cdk2(S276C) (C177A)) | Rate constant with glutathione (k(GSH)) [1] | Rate constant with Glutathione [1] | further results
1 | C=CC(=O)NCCc1c(-c2ccccn2)[nH]c2ccc(F)cc12 [EL-1084] | 0.09078 | 0.0003879 | 0.00599 | 1.828 | 0.007812 | 0.229 | 0.0009787 | 0.00314 | 1.173 | 0.005012 | 0.5247 | 1.101 | 1.7587E−11 | 7.515E−14 | 0.608 | 0.002598 | 0.4117 | 0.001759 | 0.00286 | 0.004273 | Rate enhancement, Cdk2 H71C (Cdk2(H71C) (C177A)): 0
2 | C=CC(=O)Nc1ccc(C(=O)NC2CCCC2)cc1 [EL-1114] | 0.3942 | 0.01188 | 0.2299 | 16.35 | 0.4929 | 0.259 | 0.007805 | 0.07947 | 2.637 | 0.07947 | 0.3457 | 2.652 | 9.237 | 0.2784 | 0.04599 | 0.001386 | 0.7973 | 0.02403 | 0.02997 | 0.03014 | Rate enhancement, Cdk2 H71C (Cdk2(H71C) (C177A)): 3.388; Rate constant with Cdk2 H71C (Cdk2(H71C) (C177A)): 0.1021
3 | C=CC(=O)N1CCN(C(=O)OCC)CC1c1cccs1 (centres unmarked) [EL-1121] | 1.051 | 0.02699 | 0.01555 | 1.411 | 0.03623 | 0.2677 | 0.006872 | 0.01328 | 0.5173 | 0.01328 | 0.854 | 0.5173 | 0.4897 | 0.01257 | 0.5551 | 0.01425 | 0.7713 | 0.0198 | 0.02567 | 0.02567 | Rate enhancement, Cdk2 H71C (Cdk2(H71C) (C177A)): 1.52; Rate constant with Cdk2 H71C (Cdk2(H71C) (C177A)): 0.03901

Continued, in another order:

Row | Rate enhancement, Cdk2 S181C (Cdk2(S181C) (C177A)) | Rate constant with Cdk2 S181C (Cdk2(S181C) (C177A)) | Rate constant with Cdk2[C177A, F80C, K278C] (k(Cdk2_mut)) (Cdk2[C177A, F80C, K278C]) | Rate enhancement, Cdk2 T182C (Cdk2(T182C) (C177A)) | Rate constant with Cdk2 T182C (Cdk2(T182C) (C177A)) | Rate enhancement, Cdk2 R122C (Cdk2(R122C) (C177A)) | Rate constant with Cdk2 R122C (Cdk2(R122C) (C177A)) | Rate constant with Cdk2 (k(Cdk2)) [2] | Rate enhancement, Cdk2 WT [2] | Rate constant with Cdk2 WT [2] | k(Cdk2)/k(Cdk2_mut) rate enhancement [2] | k(Cdk2)/k(GSH) rate enhancement [2] | Rate enhancement, Cdk2 F80C (Cdk2(C177A, F80C)) | Rate constant with Cdk2 F80C (Cdk2(C177A, F80C)) | Rate enhancement, Cdk2 N272 (Cdk2(N272C) (C177A)) | Rate constant with Cdk2 N272C (Cdk2(N272C) (C177A)) | Rate enhancement, Cdk2 S276C (Cdk2(S276C) (C177A)) | Rate constant with Cdk2 S276C (Cdk2(S276C) (C177A)) | Structure (SMILES) | Rate constant with glutathione (k(GSH)) [1] | Rate constant with Glutathione [1] | further results
4 | 0.4335 | 0.00499 | 0.03487 | 2.526 | 0.02907 | 0.5598 | 0.006443 | 0.01063 | 0.9235 | 0.01063 | 0.3049 | 0.9268 | 0.7203 | 0.008291 | 0.8491 | 0.009773 | 1.017 | 0.0117 | C=CC(=O)Nc1cccc(-c2cc3ccccc3[nH]2)c1 [EL-1098] | 0.01147 | 0.01151 | Rate enhancement, Cdk2 H71C (Cdk2(H71C) (C177A)): 0.2587; Rate constant with Cdk2 H71C (Cdk2(H71C) (C177A)): 0.002978
5 | 0.396 | 0.002941 | 0.00226 | 1.305 | 0.009691 | 0.3078 | 0.002286 | 0.00341 | 0.4606 | 0.003421 | 1.51 | 0.4373 | 0.3417 | 0.002538 | 0.6801 | 0.005051 | 0.9981 | 0.007413 | C=CC(=O)NC(C)c1cc(OC)c(OC)c(OC)c1 (centres unmarked) [EL-1101] | 0.0078 | 0.007427 | Rate enhancement, Cdk2 H71C (Cdk2(H71C) (C177A)): 0.8384; Rate constant with Cdk2 H71C (Cdk2(H71C) (C177A)): 0.006227
6 | 1.588 | 0.01361 | 0.00922 | 5.286 | 0.04531 | 0.7255 | 0.006219 | 0.00827 | 0.9701 | 0.008316 | 0.8966 | 0.9595 | 1.94 | 0.01663 | 0.3872 | 0.003319 | 0.9188 | 0.007876 | C=CC(=O)Nc1ccc2nc(C)[nH]c2c1 [EL-1109] | 0.00862 | 0.008572 | Rate enhancement, Cdk2 H71C (Cdk2(H71C) (C177A)): 0.5644; Rate constant with Cdk2 H71C (Cdk2(H71C) (C177A)): 0.004838

Source: patent US11415579B2, “Assay for measuring a rate of reaction between a target and a ligand candidate” (Imperial College Innovations Ltd., priority 2016, dated 2022)
